According to publication PMC3144920, “Peptide Substrates for Rho-Associated Kinase 2 (Rho-Kinase 2/ROCK2)” (PLoS ONE, 2011):
“Also recorded” adds a separate entry of the source. Where a SMILES comes first, the peptide text is derived from it.

What was measured:
Assay type in all cases: biochemical
ROCK2 [1] = target: T1, ROCK2 (Homo sapiens, UniProt O75116); test: Inhibition of ROCK2 phosphorylation of S6K substrate peptide by inhibitor peptides; conditions: competitive; S6K peptide (KRRRLASLR) as substrate, 1.25 µg/mL ROCK2, 100 µM ATP, MOPS pH 7.2; Dixon plot and Lineweaver–Burk plot
T1 construct: purchased Carna Biosciences, Kobe, Japan
Description: The phosphorylatable amino acid (threonine) of five peptide substrates (R4, R22, R133, R134, and R135) was replaced with alanine. […] Ki values were obtained from the Dixon plot and Lineweaver–Burk plot. Inhibitor peptides were added into 25 µL of buffer (5 mM MOPS at pH 7.2, 2.5 mM beta-glycerophosphate, 1 mM EGTA, 4 mM MgCl2, 0.05 mM DTT, and 100 µM ATP) containing S6K substrate peptide and 1.25 µg/mL ROCK2.

ROCK2 [2] = target: T1, ROCK2; test: Kinetic analysis of peptide substrate phosphorylation by ROCK2 (Lineweaver–Burk plot)
Description: The kinase activity of recombinant ROCK2 (Carna Biosciences, Kobe, Japan), ERK1 (Upstate, Millipore, Temecula, CA, USA), PKA (Promega, Madison, WI, USA), and PKCα (Sigma–Aldrich, St. Louis, MO, USA) for the peptide substrates was determined by measuring ^32P transfer from [γ-^32P]ATP into substrate peptides according to manufacturer recommendations. Phosphorylation reactions by ROCK2 were carried out in 25 µL of buffer (5 mM 3-(N-morpholino)propanesulfonic acid (MOPS) at pH 7.2, 2.5 mM beta-glycerophosphate, 1 mM ethylene glycol tetra-acetic acid (EGTA), 4 mM MgCl2, 0.05 mM dithiothreitol (DTT), and 100 µM adenosine triphosphate (ATP)) containing peptides and 1.25 µg/ml ROCK2. For PKCα, phosphorylation reactions were carried out in 25 µL of buffer (20 mM HEPES at pH 7.4, 10 mM MgCl2, 1 mM CaCl2, 100 µM ATP, 40 µg/mL phosphatidylserine, and 20 µg/mL diacylglycerol) containing peptides and 0.5 µg/mL PKCα. Phosphorylation reactions by PKA were carried out in 25 µL of buffer (50 mM HEPES at pH 7.4, 1 mM CaCl2, 10 mM MgCl2, 100 µM ATP) containing peptides and 1.6 µg/mL PKA. For ERK1, phosphorylation reactions were carried out in 25 µL of buffer (25 mM Tris-HCl at pH 7.5, 20 µM EGTA, 15 mM magnesium acetate, and 100 µM ATP) containing peptides and 0.5 µg/mL ERK1. For each experimental condition, values for control reactions lacking substrate peptides were subtracted as blanks. The assay mixture was incubated for 10 min at 25°C, and the reaction terminated by the addition of 5 µL of 30% trichloroacetic acid (TCA). The reaction mixture (24 µL) was spotted onto P-81 phosphocellulose membranes. The membranes were washed thrice with 5% TCA, dried with acetone, and the radioactivity of each membrane determined by liquid scintillation counting. Kinetic analyses of enzyme activity were determined using the Lineweaver–Burk plot. […]

PKCα = target: T2, PKCα (Homo sapiens, UniProt P17252); test: Radiolabel assay using [γ-32P]ATP: phosphorylation of peptide substrates by PKCα; conditions: Fig. 3, in words; for CPM for PKCα: 0.5 µg/mL PKCα, 100 µM ATP, HEPES pH 7.4, 10 min at 25°C
T2 construct: purchased Sigma–Aldrich, St. Louis, MO, USA
Description: (§1) The kinase activity of recombinant ROCK2 (Carna Biosciences, Kobe, Japan), ERK1 (Upstate, Millipore, Temecula, CA, USA), PKA (Promega, Madison, WI, USA), and PKCα (Sigma–Aldrich, St. Louis, MO, USA) for the peptide substrates was determined by measuring ^32P transfer from [γ-^32P]ATP into substrate peptides according to manufacturer recommendations. Phosphorylation reactions by ROCK2 were carried out in 25 µL of buffer (5 mM 3-(N-morpholino)propanesulfonic acid (MOPS) at pH 7.2, 2.5 mM beta-glycerophosphate, 1 mM ethylene glycol tetra-acetic acid (EGTA), 4 mM MgCl2, 0.05 mM dithiothreitol (DTT), and 100 µM adenosine triphosphate (ATP)) containing peptides and 1.25 µg/ml ROCK2. For PKCα, phosphorylation reactions were carried out in 25 µL of buffer (20 mM HEPES at pH 7.4, 10 mM MgCl2, 1 mM CaCl2, 100 µM ATP, 40 µg/mL phosphatidylserine, and 20 µg/mL diacylglycerol) containing peptides and 0.5 µg/mL PKCα. Phosphorylation reactions by PKA were carried out in 25 µL of buffer (50 mM HEPES at pH 7.4, 1 mM CaCl2, 10 mM MgCl2, 100 µM ATP) containing peptides and 1.6 µg/mL PKA. For ERK1, phosphorylation reactions were carried out in 25 µL of buffer (25 mM Tris-HCl at pH 7.5, 20 µM EGTA, 15 mM magnesium acetate, and 100 µM ATP) containing peptides and 0.5 µg/mL ERK1. For each experimental condition, values for control reactions lacking substrate peptides were subtracted as blanks. The assay mixture was incubated for 10 min at 25°C, and the reaction terminated by the addition of 5 µL of 30% trichloroacetic acid (TCA). The reaction mixture (24 µL) was spotted onto P-81 phosphocellulose membranes. The membranes were washed thrice with 5% TCA, dried with acetone, and the radioactivity of each membrane determined by liquid scintillation counting. Kinetic analyses of enzyme activity were determined using the Lineweaver–Burk plot.

PKA = target: T3, PKA (Bos taurus, UniProt P00517); test: Radiolabel assay using [γ-32P]ATP: phosphorylation of peptide substrates by PKA; conditions: 1.6 µg/mL PKA, 100 µM ATP, HEPES pH 7.4, 10 min at 25°C; Fig. 3, in words
T3 construct: purchased Promega, Madison, WI, USA
Description: as §1

ERK1 = target: T4, ERK1 (Homo sapiens, UniProt P27361); test: Radiolabel assay using [γ-32P]ATP: phosphorylation of peptide substrates by ERK1; conditions: 0.5 µg/mL ERK1, 100 µM ATP, Tris-HCl pH 7.5, 10 min at 25°C; Fig. 3, in words
T4 construct: purchased Upstate, Millipore, Temecula, CA, USA
Description: as §1

T1 sequence (O75116 1-553 limits assumed): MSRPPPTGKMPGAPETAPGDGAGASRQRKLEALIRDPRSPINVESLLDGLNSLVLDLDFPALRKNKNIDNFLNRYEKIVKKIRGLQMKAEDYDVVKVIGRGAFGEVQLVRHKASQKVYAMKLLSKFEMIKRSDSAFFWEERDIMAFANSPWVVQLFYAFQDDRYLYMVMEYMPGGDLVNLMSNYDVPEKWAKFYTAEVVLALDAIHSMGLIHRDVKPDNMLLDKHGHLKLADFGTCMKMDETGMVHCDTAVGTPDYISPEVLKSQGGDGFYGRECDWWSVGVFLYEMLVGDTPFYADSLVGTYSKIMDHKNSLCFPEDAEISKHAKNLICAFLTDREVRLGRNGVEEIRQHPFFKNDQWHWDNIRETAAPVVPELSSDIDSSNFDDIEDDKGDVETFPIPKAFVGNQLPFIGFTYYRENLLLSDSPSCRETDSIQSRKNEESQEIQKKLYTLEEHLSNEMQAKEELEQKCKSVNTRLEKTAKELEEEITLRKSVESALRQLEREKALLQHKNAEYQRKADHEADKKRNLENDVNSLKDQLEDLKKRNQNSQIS
T4 sequence (P27361 whole entry, species assumed): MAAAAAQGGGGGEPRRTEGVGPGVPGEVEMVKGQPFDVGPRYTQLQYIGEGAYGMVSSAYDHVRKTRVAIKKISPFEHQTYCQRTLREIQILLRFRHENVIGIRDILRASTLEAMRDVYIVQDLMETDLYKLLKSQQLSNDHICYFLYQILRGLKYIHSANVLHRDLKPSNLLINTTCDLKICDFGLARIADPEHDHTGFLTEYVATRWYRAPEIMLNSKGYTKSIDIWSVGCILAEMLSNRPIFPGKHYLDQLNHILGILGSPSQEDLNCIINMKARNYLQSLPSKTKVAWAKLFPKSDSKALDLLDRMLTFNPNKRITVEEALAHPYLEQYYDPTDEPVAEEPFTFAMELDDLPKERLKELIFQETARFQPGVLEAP

| Compound | Ki (ROCK2 [1]) [µM] | Km (ROCK2 [2]) [µM] | Vmax (ROCK2 [2]) [pmol/min/mg] | CPM for ROCK2 compared with PKCα (PKCα) | CPM for ROCK2 compared with PKA (PKA) | CPM for ROCK2 compared with ERK1 (ERK1) | CPM for PKCα (PKCα) |
| --- | --- | --- | --- | --- | --- | --- | --- |
| CC[C@H](C)[C@H](NC(=O)[C@H](CCC(N)=O)NC(=O)[C@H](CCCNC(=N)N)NC(=O)[C@H](CC(C)C)NC(=O)[C@H](C)NC(=O)[C@H](CCCCN)NC(=O)[C@H](Cc1ccc(O)cc1)NC(=O)[C@H](CCCCN)NC(=O)[C@H](C)NC(=O)[C@@H](N)CCCNC(=N)N)C(=O)N[C@@H](CCCNC(=N)N)C(=O)O [R4 with alanine instead of threonine] (H-RAKYKALRQIR-OH) | 86.6 |  |  |  |  |  |  |
| CSCC[C@H](NC(=O)[C@H](Cc1c[nH]c2ccccc12)NC(=O)[C@H](Cc1ccc(O)cc1)NC(=O)[C@@H]1CCCN1C(=O)[C@H](CC(N)=O)NC(=O)CNC(=O)[C@@H](NC(=O)[C@@H](NC(=O)[C@H](C)NC(=O)[C@H](Cc1ccc(O)cc1)NC(=O)[C@H](CCCNC(=N)N)NC(=O)[C@H](CCCCN)NC(=O)[C@H](CCCCN)NC(=O)[C@H](CCCNC(=N)N)NC(=O)[C@H](C)NC(=O)[C@@H]1CCCN1C(=O)[C@@H](N)CCCCN)C(C)C)C(C)C)C(=O)O [R22 with alanine instead of threonine] (H-KPARKKRYAVVGNPYWM-OH) | 11.6 |  |  |  |  |  |  |
| CSCC[C@H](NC(=O)[C@H](Cc1c[nH]c2ccccc12)NC(=O)[C@H](Cc1ccc(O)cc1)NC(=O)[C@@H]1CCCN1C(=O)[C@H](CC(N)=O)NC(=O)CNC(=O)[C@@H](NC(=O)[C@@H](NC(=O)[C@H](C)NC(=O)[C@H](Cc1ccc(O)cc1)NC(=O)[C@H](CCCNC(=N)N)NC(=O)[C@H](CCCCN)NC(=O)[C@H](CCCCN)NC(=O)[C@H](CCCNC(=N)N)NC(=O)[C@H](CC(=O)O)NC(=O)[C@H](CO)NC(=O)[C@@H](N)CCCCN)C(C)C)C(C)C)C(=O)O [R133 with alanine instead of threonine] (H-KSDRKKRYAVVGNPYWM-OH; N-terminus and C-terminus assumed) | > 100 |  |  |  |  |  |  |
| CSCC[C@H](NC(=O)[C@H](Cc1c[nH]c2ccccc12)NC(=O)[C@H](Cc1ccc(O)cc1)NC(=O)[C@@H]1CCCN1C(=O)[C@H](CC(N)=O)NC(=O)CNC(=O)[C@@H](NC(=O)[C@@H](NC(=O)[C@H](C)NC(=O)[C@H](Cc1ccc(O)cc1)NC(=O)[C@H](CCCNC(=N)N)NC(=O)[C@H](CCCCN)NC(=O)[C@H](CCCCN)NC(=O)[C@H](CCCNC(=N)N)NC(=O)[C@H](C)NC(=O)[C@H](CO)NC(=O)[C@@H](N)CCCCN)C(C)C)C(C)C)C(=O)O [R134 with alanine instead of threonine] (H-KSARKKRYAVVGNPYWM-OH) | 29.2 |  |  |  |  |  |  |
| CSCC[C@H](NC(=O)[C@H](Cc1c[nH]c2ccccc12)NC(=O)[C@H](Cc1ccc(O)cc1)NC(=O)[C@@H]1CCCN1C(=O)[C@H](CC(N)=O)NC(=O)CNC(=O)[C@@H](NC(=O)[C@@H](NC(=O)[C@H](C)NC(=O)[C@H](Cc1ccc(O)cc1)NC(=O)[C@H](CCCNC(=N)N)NC(=O)[C@H](CCCCN)NC(=O)[C@H](CCCCN)NC(=O)[C@H](CCCNC(=N)N)NC(=O)[C@H](CC(=O)O)NC(=O)[C@H](C)NC(=O)[C@@H](N)CCCCN)C(C)C)C(C)C)C(=O)O [R135 with alanine instead of threonine] (H-KADRKKRYAVVGNPYWM-OH; N-terminus and C-terminus assumed) | > 100 |  |  |  |  |  |  |
| KADRKKRYTVVGNPYWM [R135, peptide substrate for ROCK2 …, origin LIMK2] |  | 3.2 | 8.6 | much higher CPM for ROCK2 than that of PKCα; also recorded: higher CPM levels for ROCK2 than the other enzymes | higher CPM levels for ROCK2 than the other enzymes | higher CPM levels for ROCK2 than the other enzymes |  |
| KPARKKRYTVVGNPYWM [R22, peptide substrate for ROCK2 …, origin LIM-kinase 1 (LIMK1)] |  | 1.9 | 10.3 | much higher CPM for ROCK2 than that of PKCα; also recorded: higher CPM levels for ROCK2 than the other enzymes | higher CPM levels for ROCK2 than the other enzymes | higher CPM levels for ROCK2 than the other enzymes |  |
| KRRRLASLR [S6K, synthetic peptide S6K (…) used as a control for ROCK2, reference compound] |  | 3.1 | 23.1 |  |  |  |  |
| KSARKKRYTVVGNPYWM [R134, peptide substrate for ROCK2 …, origin LIMK2] |  | 3.3 | 14.9 |  |  |  | high CPM |
| KSDRKKRYTVVGNPYWM [R133, peptide substrate for ROCK2 …, origin LIMK2] |  | 3.6 | 10.0 | much higher CPM for ROCK2 than that of PKCα; also recorded: higher CPM levels for ROCK2 than the other enzymes | higher CPM levels for ROCK2 than the other enzymes | higher CPM levels for ROCK2 than the other enzymes |  |
| RAKYKTLRQIR [R4, peptide substrate for ROCK2 …, origin ERM family (Ezrin/ Radixin/ Moesin)] |  | 1.7 | 14.2 |  |  |  | high CPM |
